Assay results: patent publication EP4154878A1, “APPLICATION OF ACTIVE […] ROOT OF […] OR PHARMACEUTICALLY ACCEPTABLE SALT THEREOF IN PREPARING ANTIVIRAL DRUG” (priority 2020, dated 2021)
Read-outs that look alike come from different tables or passages of the source.

What was measured:
Assay type in all cases: cell-based
SARS-CoV-2 = assay: microbe, parasite or virus in culture; conditions: read-out: half effective concentration EC50 on activity of SARS-CoV-2
cell Vero-E6 = assay: Cytotoxicity detection (CCK-8), cell Vero-E6; conditions: for toxic effect on the cell Vero-E6: 48 hours, CCK-8; for cytotoxicity: within the effective concentration range, cell not named
Experimental: (§1) • 1. Method: • 1) Cell inoculation: Cells Vero-E6 and 293T/ACE2 in a logarithmic growth period were taken, cell densities thereof were adjusted to 1^∗10^4 cells/well, and 100 µL/well thereof were respectively inoculated on a 96-well plate and cultured overnight. • 2) Drug concentration design: Before administration, a drug was diluted to nine concentration gradients with a DMEM medium containing fetal bovine serum of 2% of a total volume twice multiple proportions, and an initial concentration of the drug was set to 200 µM (200, 100, 50, 25, 12.5, 6.25, 3.125, 1.5625, 0.78125 µM), and 100 µL per well of a diluted drug was taken to be added into the cells Vero-E6 and 293T/ACE2 in the 96-well plate in 1), with a final volume of 200 µL per well. Triplicate wells were set for each drug concentration. A DMSO solvent treatment group was used as a blank control. • 3) Absorbance detection: After incubation in an incubator for 48 hours, 10 µL of a CCK-8 working solution was added into each well, and incubation continued to be conducted in the incubator for 3 hours. The absorbance at 450 nm was measured by a microplate reader. • 4) According to measured OD values, survival rates of the cells Vero-E6 and 293T/ACE2 under the action of various concentrations of the drug were calculated respectively compared with the control group. • 2.
(§2) • 1. Method: • 1) Cell inoculation: Cells Vero-E6 and 293T/ACE2 in a logarithmic growth period were taken, cell densities thereof were adjusted to 1^∗10^4 cells/well, and 100 µL/well thereof were respectively inoculated on a 96-well plate and cultured overnight in a 37°C cell incubator. • 2) Drug concentration design: Before administration, a drug was diluted to eight concentration gradients with a DMEM medium containing fetal bovine serum of 2% of a total volume twice multiple proportions. Cell Vero-E6: an initial concentration was set to 200 µM (200, 100, 50, 25, 12.5, 6.25, 3.125, 1.5625 µM), and 100 µL per well of a diluted drug was taken to be added into the cell Vero-E6 in the 96-well plate in 1), with a final volume of 200 µL per well. Triplicate wells were set for each drug concentration. A DMSO solvent treatment group was used as a blank control. Cell 293T/ACE2: an initial concentration was set to 100 µM (100, 50, 25, 12.5, 6.25, 3.125, 1.5625, 0.78125 µM), and 100 µL per well of a diluted drug was taken to be added into the cell 293T/ACE2 in the 96-well plate in 1), with a final volume of 200 µL per well. Triplicate wells were set for each drug concentration. A DMSO solvent treatment group was used as a blank control. • 3) Absorbance detection: After incubation in an incubator for 48 hours, 10 µL of a CCK-8 working solution was added into each well, and incubation continued to be conducted in the incubator for 3 hours. The absorbance at 450 nm was measured by a microplate reader. • 4) According to measured OD values, survival rates of the cells Vero-E6 and 293T/ACE2 under the action of various concentrations of the drug were calculated respectively compared with the control group.
• 1. Method: • 1) Cell inoculation: Cells Vero-E6 and 293T/ACE2 in a logarithmic growth period were taken, cell densities thereof were adjusted to 1^∗10^4 cells/well, and 100 µL/well thereof were respectively inoculated on a 96-well plate and cultured overnight. • 2) Drug concentration design: Before administration, a drug was diluted to nine concentration gradients with a DMEM medium containing fetal bovine serum of 2% of a total volume twice multiple proportions, and an initial concentration was set to 200 µM (200, 100, 50, 25, 12.5, 6.25, 3.125, 1.5625, 0.78125 µM), and 100 µL per well of a diluted drug was taken to be added into the cells Vero-E6 and 293T/ACE2 in the 96-well plate in 1), with a final volume of 200 µL per well. Triplicate wells were set for each drug concentration. […]

cell 293T/ACE2 = assay: Cytotoxicity detection (CCK-8), cell 293T/ACE2; conditions: 48 hours
Experimental: as §1
as §2, with “Cell 293T/ACE2: an initial concentration was set to 100 µM (100, 50, 25, 12.5, 6.25, 3.125, 1.5625, 0.78125 µM), and 100 µL per well of a diluted drug was taken to be added into the cell 293T/ACE2 in the 96-well plate in 1), with a final volume of 200 µL per well. Triplicate wells were set for each drug concentration.” left out, “group. […]” for “group.”

SARS-CoV-2 pseudovirus = assay: microbe, parasite or virus in culture; conditions: Severe acute respiratory syndrome-related coronavirus, 293T/ACE2, 48 h, read-out: half inhibitory concentration IC50 to inhibit entering of the SARS-CoV-2 pseudovirus into a target cell
[1] = at 100 µM and within an effective concentration range
[2] = Severe acute respiratory syndrome coronavirus 2, Vero C1008, 24 h
[3] = at 200 µM and within an effective concentration range

Row | SMILES | EC50 (SARS-CoV-2) [nM] | toxic effect on the cell Vero-E6 (cell Vero-E6; [1]) | cytotoxicity (cell Vero-E6) | EC50 (SARS-CoV-2; [2]) [nM] | toxic effect on the cell 293T/ACE2 (cell 293T/ACE2; at 2.5 µM and within an effective concentration range) | IC50 (SARS-CoV-2 pseudovirus) [nM] | toxic effect on the cell Vero-E6 (cell Vero-E6; at 10 µM and within an effective concentration range) | toxic effect on the cell 293T/ACE2 (cell 293T/ACE2; [3]) | toxic effect on the cell Vero-E6 (cell Vero-E6; [3]) | toxic effect on the cell 293T/ACE2 (cell 293T/ACE2; [1])
1 | Cc1coc2c1C(=O)C(=O)c1c-2ccc2c(C)cccc12 [Tanshinone I] | 2980 | no obvious toxic effect | no obvious cytotoxicity |  |  |  |  |  |  | 
2 | C[C@H]1COC2=C1C(=O)C(=O)c1c2ccc2c1CCCC2(C)C [cryptotanshinone, Cryptotanshinone] |  | no obvious toxic effect | no obvious cytotoxicity | 1460 |  |  |  |  |  | 
3 | Cc1cccc2c3c(ccc12)C1=C(C(=O)C3=O)[C@@H](C)CO1 [dihydrotanshinone I] |  |  | no obvious cytotoxicity | 640 | no obvious toxic effect | 680 | no obvious toxic effect |  |  | 
4 | O=C(O)[C@H](O)Cc1ccc(O)c(O)c1 [salvianic acid A] |  |  | no obvious cytotoxicity | 1070 |  | 2700 |  | no obvious toxic effect | no obvious toxic effect | 
5 | O=C(/C=C/c1ccc(O)c2c1[C@H](C(=O)O[C@H](Cc1ccc(O)c(O)c1)C(=O)O)[C@@H](c1ccc(O)c(O)c1)O2)O[C@H](Cc1ccc(O)c(O)c1)C(=O)O [salvianolic acid B] |  |  | no obvious cytotoxicity | 55500 |  | 416 |  |  | no obvious toxic effect | no obvious toxic effect
6 | O=C(/C=C/c1ccc(O)c2oc(-c3ccc(O)c(O)c3)cc12)O[C@H](Cc1ccc(O)c(O)c1)C(=O)O [salvianolic acid C] |  |  | no obvious cytotoxicity | 3410 |  | 5900 |  | no obvious toxic effect | no obvious toxic effect | 
